Laboratory results as given in paper PMC6393351, “Linking Terpene Synthases to Sesquiterpene Metabolism in Grapevine Flowers” (Frontiers in Plant Science, 2019).
Changes are numbered by the printed parent chain.

How the values were obtained:
Experiment in all cases: in vivo yeast expression, HS-SPME-GC-MS of volatiles
Type in all cases: cell-based
Settings in all cases: endogenous FPP of engineered yeast GT051, not added; pH 6, 5 mM Mg2+, 30 °C, 16 h
VvivMATPS10 = target: T1, VvivMATPS10 (Vitis vinifera, UniProt A0A482AL43)
T1 construct: full-length ORF from flower cDNA; yeast GT051 (GAL1 promoter); also transient expression in N. benthamiana (pEAQ-HT-DEST1)
T1 sequence (A0A482AL43 1-560): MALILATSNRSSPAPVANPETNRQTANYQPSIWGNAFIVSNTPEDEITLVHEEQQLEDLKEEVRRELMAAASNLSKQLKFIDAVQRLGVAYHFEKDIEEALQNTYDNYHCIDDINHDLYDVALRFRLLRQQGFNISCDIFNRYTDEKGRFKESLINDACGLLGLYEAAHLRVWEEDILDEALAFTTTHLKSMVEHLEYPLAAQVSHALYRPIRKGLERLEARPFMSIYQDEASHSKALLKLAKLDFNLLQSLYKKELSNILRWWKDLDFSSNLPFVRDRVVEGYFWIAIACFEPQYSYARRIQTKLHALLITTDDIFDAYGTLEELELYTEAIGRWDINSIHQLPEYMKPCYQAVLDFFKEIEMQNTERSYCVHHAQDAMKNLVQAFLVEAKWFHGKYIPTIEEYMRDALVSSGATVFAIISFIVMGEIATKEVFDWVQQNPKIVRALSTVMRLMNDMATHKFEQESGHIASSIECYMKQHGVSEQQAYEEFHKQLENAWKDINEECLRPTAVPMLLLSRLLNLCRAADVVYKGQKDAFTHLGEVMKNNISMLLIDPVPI

VvivSHTPS27 = target: T2, VvivSHTPS27 (Vitis vinifera, UniProt A0A482AKK8)
T2 construct: full-length ORF from cDNA; expressed in yeast GT051 under GAL1 promoter
T2 sequence (A0A482AKK8 1-557): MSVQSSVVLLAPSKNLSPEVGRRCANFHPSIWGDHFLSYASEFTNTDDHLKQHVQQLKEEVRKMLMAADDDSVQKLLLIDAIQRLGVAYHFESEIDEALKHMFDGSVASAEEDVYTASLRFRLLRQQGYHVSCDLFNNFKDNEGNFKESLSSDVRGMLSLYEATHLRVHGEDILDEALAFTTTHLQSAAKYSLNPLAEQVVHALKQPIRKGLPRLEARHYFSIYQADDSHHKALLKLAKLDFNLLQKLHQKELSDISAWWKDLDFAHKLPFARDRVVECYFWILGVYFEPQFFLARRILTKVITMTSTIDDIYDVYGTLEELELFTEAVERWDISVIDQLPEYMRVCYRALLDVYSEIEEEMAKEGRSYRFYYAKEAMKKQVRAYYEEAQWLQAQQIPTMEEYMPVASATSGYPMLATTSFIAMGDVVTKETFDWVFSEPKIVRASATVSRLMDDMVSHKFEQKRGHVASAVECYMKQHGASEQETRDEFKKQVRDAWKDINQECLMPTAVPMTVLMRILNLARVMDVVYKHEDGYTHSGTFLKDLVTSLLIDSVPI

VvivMATPS28 = target: T3, VvivMATPS28 (Vitis vinifera, UniProt A0A482AJV9)
T3 construct: full-length ORF from cDNA; expressed in yeast GT051 under GAL1 promoter
T3 sequence (A0A482AJV9 1-558): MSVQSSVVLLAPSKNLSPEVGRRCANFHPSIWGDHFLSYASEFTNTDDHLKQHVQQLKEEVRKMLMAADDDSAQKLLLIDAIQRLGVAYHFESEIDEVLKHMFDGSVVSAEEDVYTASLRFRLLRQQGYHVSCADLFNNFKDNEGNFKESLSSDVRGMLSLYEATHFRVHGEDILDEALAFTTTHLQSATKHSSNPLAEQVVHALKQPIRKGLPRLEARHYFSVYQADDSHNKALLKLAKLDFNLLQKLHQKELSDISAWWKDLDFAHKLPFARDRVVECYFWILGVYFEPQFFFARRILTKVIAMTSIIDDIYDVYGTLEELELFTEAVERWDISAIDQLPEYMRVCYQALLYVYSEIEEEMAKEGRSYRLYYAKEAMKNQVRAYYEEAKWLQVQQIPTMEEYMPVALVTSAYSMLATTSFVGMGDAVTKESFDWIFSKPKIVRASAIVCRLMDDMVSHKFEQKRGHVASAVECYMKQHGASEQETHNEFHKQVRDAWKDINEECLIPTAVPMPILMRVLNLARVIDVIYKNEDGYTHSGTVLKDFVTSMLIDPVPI

VvivMATPS27 = target: T4, VvivMATPS27 (Vitis vinifera, UniProt E5GAF4)
T4 construct: full-length ORF from cDNA; expressed in yeast GT051 under GAL1 promoter
T4 sequence (E5GAF4 1-557): T2 sequence (A0A482AKK8 1-557) with F27Y

VvivSBTPS02 = target: T5, VvivSBTPS02 (Vitis vinifera, UniProt A0A482AJK8)
T5 construct: full-length ORF from cDNA; expressed in yeast GT051 under GAL1 promoter
T5 sequence (A0A482AJK8 1-555): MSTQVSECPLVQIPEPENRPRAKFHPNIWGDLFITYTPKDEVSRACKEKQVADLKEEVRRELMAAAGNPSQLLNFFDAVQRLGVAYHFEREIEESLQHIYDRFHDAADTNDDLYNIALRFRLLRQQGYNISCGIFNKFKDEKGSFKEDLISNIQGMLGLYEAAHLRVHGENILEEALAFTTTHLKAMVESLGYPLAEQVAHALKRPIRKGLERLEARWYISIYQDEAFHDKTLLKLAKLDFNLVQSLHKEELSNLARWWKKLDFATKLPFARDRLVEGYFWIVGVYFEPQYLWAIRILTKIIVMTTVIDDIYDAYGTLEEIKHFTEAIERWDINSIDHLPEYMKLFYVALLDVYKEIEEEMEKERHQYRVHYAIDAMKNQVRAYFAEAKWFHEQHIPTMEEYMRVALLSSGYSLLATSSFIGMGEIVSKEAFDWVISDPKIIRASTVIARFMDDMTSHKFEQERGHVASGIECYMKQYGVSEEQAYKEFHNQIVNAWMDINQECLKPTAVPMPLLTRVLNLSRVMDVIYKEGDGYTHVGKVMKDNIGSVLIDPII

VvivSBTPS01 = target: T6, VvivSBTPS01 (Vitis vinifera, UniProt A0A482ALZ4)
T6 construct: full-length ORF from cDNA; expressed in yeast GT051 under GAL1 promoter
T6 sequence (A0A482ALZ4 1-555): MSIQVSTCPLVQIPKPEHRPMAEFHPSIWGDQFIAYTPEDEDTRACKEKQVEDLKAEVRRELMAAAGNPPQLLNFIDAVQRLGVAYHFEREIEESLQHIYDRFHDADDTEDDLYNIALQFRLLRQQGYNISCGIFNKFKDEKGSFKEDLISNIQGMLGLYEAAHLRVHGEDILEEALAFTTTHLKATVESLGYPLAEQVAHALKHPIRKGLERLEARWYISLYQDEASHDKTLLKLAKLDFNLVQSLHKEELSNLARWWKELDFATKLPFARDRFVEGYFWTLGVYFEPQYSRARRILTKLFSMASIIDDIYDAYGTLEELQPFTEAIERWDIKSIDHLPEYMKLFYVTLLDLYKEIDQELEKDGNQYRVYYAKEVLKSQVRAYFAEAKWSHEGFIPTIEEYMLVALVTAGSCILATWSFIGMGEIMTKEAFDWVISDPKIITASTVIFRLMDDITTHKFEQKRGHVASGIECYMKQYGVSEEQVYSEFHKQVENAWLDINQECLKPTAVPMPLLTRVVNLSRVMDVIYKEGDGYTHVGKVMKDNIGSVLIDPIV

VvivMATPS01 = target: T7, VvivMATPS01 (Vitis vinifera, UniProt A0A482ANT9)
T7 construct: full-length ORF from cDNA; expressed in yeast GT051 under GAL1 promoter
T7 sequence (A0A482ANT9 1-555): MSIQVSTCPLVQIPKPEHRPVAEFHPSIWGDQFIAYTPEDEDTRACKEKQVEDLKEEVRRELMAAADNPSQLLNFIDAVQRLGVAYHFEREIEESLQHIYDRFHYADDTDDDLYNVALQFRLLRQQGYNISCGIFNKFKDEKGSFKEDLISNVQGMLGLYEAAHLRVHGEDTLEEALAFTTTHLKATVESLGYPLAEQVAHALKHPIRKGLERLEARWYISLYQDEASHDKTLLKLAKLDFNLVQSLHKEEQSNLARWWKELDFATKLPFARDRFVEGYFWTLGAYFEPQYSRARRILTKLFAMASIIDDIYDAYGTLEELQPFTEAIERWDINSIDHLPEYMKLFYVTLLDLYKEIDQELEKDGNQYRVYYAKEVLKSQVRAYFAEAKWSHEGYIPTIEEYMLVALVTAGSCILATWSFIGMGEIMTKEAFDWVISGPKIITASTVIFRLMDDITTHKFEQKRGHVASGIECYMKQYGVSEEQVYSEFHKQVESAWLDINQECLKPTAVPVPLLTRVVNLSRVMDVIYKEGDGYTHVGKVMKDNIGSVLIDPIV

## CC(C)=CCC/C(C)=C/CC/C(C)=C/COP(=O)(O)OP(=O)(O)O [FPP]
VvivMATPS10
  in vivo yeast expression, HS-SPME-GC-MS of volatiles: increase the metabolic flux for the FPP terpene precursor
VvivSHTPS27
  in vivo yeast expression, HS-SPME-GC-MS of volatiles: increase the metabolic flux for the FPP terpene precursor
VvivMATPS28
  in vivo yeast expression, HS-SPME-GC-MS of volatiles: increase the metabolic flux for the FPP terpene precursor
VvivMATPS27
  in vivo yeast expression, HS-SPME-GC-MS of volatiles: increase the metabolic flux for the FPP terpene precursor
VvivSBTPS02
  in vivo yeast expression, HS-SPME-GC-MS of volatiles: increase the metabolic flux for the FPP terpene precursor
VvivSBTPS01
  in vivo yeast expression, HS-SPME-GC-MS of volatiles: increase the metabolic flux for the FPP terpene precursor
VvivMATPS01
  in vivo yeast expression, HS-SPME-GC-MS of volatiles: increase the metabolic flux for the FPP terpene precursor
